The source of these data is patent publication US11964938B2, “3-phenyl-4-hexynoic acid derivatives as GPR40 agonists” (CELON PHARMA S.A., priority 2018, dated 2024).

Holding throughout (format): cell-based
Holding throughout (settings): HEK293 cells overexpressing transporter

In data set [1] the target is T1, OAT2v1 (Homo sapiens, UniProt Q9Y694).
T1 construct: host or cells: HEK293
T1 sequence (Q9Y694 1-546 isoform Q9Y694-2): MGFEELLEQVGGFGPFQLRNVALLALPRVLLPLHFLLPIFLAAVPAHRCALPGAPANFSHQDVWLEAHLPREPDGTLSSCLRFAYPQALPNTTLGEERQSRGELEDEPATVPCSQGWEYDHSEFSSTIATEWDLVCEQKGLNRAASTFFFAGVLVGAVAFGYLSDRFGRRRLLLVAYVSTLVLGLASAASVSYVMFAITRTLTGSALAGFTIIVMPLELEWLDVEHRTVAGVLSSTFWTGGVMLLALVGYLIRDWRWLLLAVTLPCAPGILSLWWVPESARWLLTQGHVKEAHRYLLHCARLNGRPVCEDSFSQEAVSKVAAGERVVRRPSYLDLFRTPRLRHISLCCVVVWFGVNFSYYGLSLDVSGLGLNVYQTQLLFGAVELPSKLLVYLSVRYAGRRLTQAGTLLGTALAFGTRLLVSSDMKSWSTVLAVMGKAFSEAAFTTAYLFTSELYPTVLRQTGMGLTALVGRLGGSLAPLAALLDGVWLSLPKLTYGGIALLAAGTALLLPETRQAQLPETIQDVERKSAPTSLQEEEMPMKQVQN
The data set can be described thus: Uptake transporter inhibition assay, OAT2v1. As for the experimental part: (§1) Experiment B4: Bile Acid Transporters Inhibition in the Liver.
(§2) The compound was tested on a panel of 10 transporters: BSEP, MRP2, MRP3, MRP4 in a vesicular transport inhibition assay and NTCP, OAT1, OAT2v1, OATP1A2, OATP1B1, OATP1B3 in an uptake transporter inhibition assays.
(§3) Transporter uptake inhibition test was performed on mammal HEK293 cells overexpressing of a respective transporter. Cells were cultured at 37±1° C. and seeded on 96-well tissue culture plate at 1×10^5/well. Substrate was removed prior to experiment and cells were washed twice with 100 μl of respective buffer (HK pH 7.4 for OATP1B1 and HBSS pH 7.4 for NTCP, OAT1, OAT2v1, OATP1A2, and OATP1B3). Uptake studies were performed at 37±1° C. in 50 μl of respective buffer containing radioactively tagged substrate and tested compound or solvent.
(§4) After experiment cells were washed twice with 100 μl of ice-cold respective buffer and lysed with 50 μl of 0.1M NaOH. Transport of radioactively tagged substrate was determined by scintillation counter measurement.

Data set [2] deals with T2, OATP1B1 (Homo sapiens, UniProt Q9Y6L6).
T2 construct: host or cells: HEK293
T2 sequence (Q9Y6L6 1-691): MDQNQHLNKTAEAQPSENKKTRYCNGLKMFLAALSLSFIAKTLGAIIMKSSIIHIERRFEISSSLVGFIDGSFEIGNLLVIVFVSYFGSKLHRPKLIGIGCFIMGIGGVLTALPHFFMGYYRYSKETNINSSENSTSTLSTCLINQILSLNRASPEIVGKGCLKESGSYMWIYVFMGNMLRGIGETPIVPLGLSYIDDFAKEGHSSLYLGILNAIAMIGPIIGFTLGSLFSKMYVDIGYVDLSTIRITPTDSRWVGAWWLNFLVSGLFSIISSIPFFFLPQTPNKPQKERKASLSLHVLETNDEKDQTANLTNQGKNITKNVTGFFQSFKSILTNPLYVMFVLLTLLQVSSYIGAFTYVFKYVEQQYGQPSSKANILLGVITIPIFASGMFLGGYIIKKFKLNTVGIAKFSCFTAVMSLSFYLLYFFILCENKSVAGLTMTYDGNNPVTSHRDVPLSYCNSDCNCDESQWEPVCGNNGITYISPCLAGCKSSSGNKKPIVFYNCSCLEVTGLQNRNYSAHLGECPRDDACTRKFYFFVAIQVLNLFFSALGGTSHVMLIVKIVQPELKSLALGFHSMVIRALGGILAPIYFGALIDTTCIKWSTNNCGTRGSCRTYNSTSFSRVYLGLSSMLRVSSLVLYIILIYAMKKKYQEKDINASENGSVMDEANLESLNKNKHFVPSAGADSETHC
Kind of data set: Uptake transporter inhibition assay, OATP1B1. As for the experimental part: as §1, §2, §3, §4

Data set [3] has as its target T3, OATP1B3 (Homo sapiens, UniProt Q9NPD5).
T3 construct: host or cells: HEK293
T3 sequence (Q9NPD5 1-702): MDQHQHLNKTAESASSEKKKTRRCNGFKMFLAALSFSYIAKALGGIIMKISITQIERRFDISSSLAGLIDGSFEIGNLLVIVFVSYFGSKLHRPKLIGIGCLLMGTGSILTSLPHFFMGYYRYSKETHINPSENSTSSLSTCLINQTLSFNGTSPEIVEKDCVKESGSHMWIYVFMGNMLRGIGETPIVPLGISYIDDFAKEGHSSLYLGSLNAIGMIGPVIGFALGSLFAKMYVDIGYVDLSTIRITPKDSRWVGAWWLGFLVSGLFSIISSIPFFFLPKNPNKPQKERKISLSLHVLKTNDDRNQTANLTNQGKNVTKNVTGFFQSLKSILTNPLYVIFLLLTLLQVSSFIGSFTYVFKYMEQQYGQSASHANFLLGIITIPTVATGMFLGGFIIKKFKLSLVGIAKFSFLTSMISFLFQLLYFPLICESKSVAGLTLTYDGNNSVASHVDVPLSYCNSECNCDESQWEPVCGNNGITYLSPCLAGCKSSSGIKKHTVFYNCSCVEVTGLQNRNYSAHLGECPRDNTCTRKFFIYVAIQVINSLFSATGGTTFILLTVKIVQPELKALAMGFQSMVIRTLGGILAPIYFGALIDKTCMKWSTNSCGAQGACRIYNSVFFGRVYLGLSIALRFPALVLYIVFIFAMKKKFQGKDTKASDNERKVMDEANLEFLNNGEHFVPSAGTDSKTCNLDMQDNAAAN
Kind of data set: Uptake transporter inhibition assay, OATP1B3. The protocol:
as §1, §2, §3, §4

Counter-ions that a name gives are not always drawn.

In the case of `Cc1cc(OCCCS(C)(=O)=O)cc(C)c1-c1cccc(COc2ccc3c(c2)OC[C@H]3CC(=O)O)c1` [Example R1, 2[(3S)-6-({3-[4-(3-methanesulfonylpropoxy)-2,6-dimethylphenyl]-phenyl}methoxy)-2,3-dihydro-1-benzofuran-3-yl]acetic acid, reference compound], the IC50 (usually the midpoint of a concentration-inhibition curve) in data set [1] stood at 62.8 µM; in data set [2], 0.49 µM; in data set [3], 3.44 µM.
On the same counts, the results for `CC#C[C@@H](CC(=O)O)c1ccc(OCC(C)=C(C)C)cc1` [Example S1, (3S)-3-{4-[(2,3-dimethylbut-2-en-1-yl)oxy]phenyl}hex-4-ynoic acid calcium salt] are more than 300 µM, 17.9 µM and 42.9 µM.
